Earlier results, collected in patent US11369558B1, “Multi-component nutritional supplement formulations and treatment regimen” (priority 2018, dated 2022).

Details: in the human body

Share of DMSO converted to MSM: approximately 15%
Structure (SMILES): C[S+](C)[O-] [DMSO, dimethyl sulfoxide]
